Values joined by “and” are separate entries in the source; they are usually repeats but may differ in a detail not shown here. Equal entries are not always repeated. Where a SMILES comes first, the peptide text is derived from it. The star is where a group is joined. Boc = CC(C)(C)OC(=O)*
These compounds were tested on P. falciparum 3D7 growth, pLDH absorbance (assay: P. falciparum 3D7 growth inhibition, dose response, strain 3D7 (AID 2305)).

Compound	IC50
COc1cc(-c2cc3cc(Cl)c(Cl)cc3[nH]2)ccc1C(=O)NC1CCN(Cc2ccccc2)CC1	530 nM
CCN(CCCN1CCCC1)c1cc(C)nc(Nc2ccc(Cl)cc2)n1	340 nM
COc1ccc(Cl)cc1NC(=O)C(C)N1CCN(S(=O)(=O)c2ccccc2F)CC1 (configuration not stated)	670 nM
Cc1[nH]c(C)c(-c2ccc(-c3ccc(F)cc3)nc2)c(=O)c1Br	250 nM
COc1ccccc1Cn1ccnc1SCC(=O)Nc1cc(C(F)(F)F)ccc1Cl	100 nM
Cc1ccc(F)c(OC2CCN(c3ccc(C(=O)NC4CC4)cn3)CC2)c1	820 nM
FC(F)(F)c1ccc(NC(=S)NC2CCC(CN3CCC(c4c[nH]c5ccccc45)CC3)CC2)cc1 (configuration not stated)	730 nM and 390 nM
CCOC(=O)CNC(=O)N(CCN(Cc1ccccc1)C(=O)NCC(=O)OCC)Cc1ccccc1	770 nM
COc1cccc(CNC(=O)c2ccnc(-c3cccc(CN(C)C4CCN(C)CC4)c3)c2)c1	830 nM
CS(=O)(=O)c1ccc(-c2cnc(N)c(-c3cccc(CO)c3)c2)cc1	940 nM
O=C(NCC1COc2ccccc2O1)c1cnc2c(c1)nc(-c1cnc(-c3ccccc3)[nH]1)n2CCSCc1c(F)cccc1Cl (configuration not stated)	960 nM
CCn1c(-c2nonc2N)nc2c(-c3cc4ccccc4s3)ncc(C(=O)N3CCC(N)C3)c21 (configuration not stated)	870 nM
O=C(/C=C/c1ccc(Cl)c(Cl)c1)NCCCCCN1CCC(NC(=O)Nc2ccc(Cl)c(C(F)(F)F)c2)CC1	650 nM
CCN(CC)CCCCNc1cc(-c2[nH]c(C(C)(C)C)nc2-c2ccc3cc(OC)ccc3c2)ccn1	530 nM
CCCCCCN1CCC(NCc2cccc(-n3ccnc3)c2)CC1	250 nM
O=[N+]([O-])c1cccc(-n2nc(NCc3ccc(Cl)cc3)nc2-c2ccc(F)c(C(F)(F)F)c2)c1	240 nM
COc1ccc2c(=O)c(-c3ccc(OC(F)(F)F)cc3)c(C)[nH]c2c1	230 nM
COc1cc(Br)ccc1N1CCN(CCCCNC(=O)c2ccc(NC(=O)c3ccc(Cl)cc3)cc2)CC1	760 nM
COc1ccc(-c2nc(NCc3ccccc3)c3cc(OC)c(OC)cc3n2)cc1	400 nM

Compound	IC50
Cc1[nH]c(C)c(-c2ccc(-c3ccccc3C(F)(F)F)nc2)c(=O)c1Br	170 nM
COc1cc2c(cc1C=CC(=O)N1CCN(Cc3nc4sc(C)c(C)c4c(=O)[nH]3)CC1)OC(C)C2 (configuration not stated)	1020 nM
CN1CCN(c2ccc(Cl)cc2NC(=O)C2COc3ccccc3O2)CC1 (configuration not stated)	810 nM
Cn1c(C2C[C@H]3CC[C@H](C2)N3CC2CCC(NC(=O)/C=C/c3ccc(Cl)c(Cl)c3)CC2)nc2ccccc21 (some centres not stated)	560 nM
C=CCc1ccc(C2CCN(CCCCNC(=O)c3ccc(NC(=O)c4ccc(Cl)cc4)cc3)CC2)cc1	1120 nM
Cc1ccc2c(NN=Cc3ccc(Cl)cc3)cc(C)nc2c1	950 nM
Cc1ccc(CCC(C)NCC(O)c2cccc(Cl)c2)cc1 (configuration not stated)	800 nM
CO[C@@H]1C[C@@H](C(=O)Nc2ccccc2)N(c2ccc(C#N)c3ccccc23)C1	910 nM
COC(=O)CC[C@H](NC(=O)[C@H](C)NC(=O)OC(C)(C)C)C(=O)OC (Boc-Ala-Glu(OMe)-OMe)	820 nM
Cn1cnc(CCNC(=O)c2ccc(-c3ccc(-c4nc5ccc(C(F)(F)F)cc5[nH]4)s3)cc2)c1	400 nM
O=C(NC1CCC(CCN2Cc3cccc(C(F)(F)F)c3C2)CC1)c1cccc(-c2cccnc2)c1 (configuration not stated)	1020 nM
OC(CNCc1ccccc1Oc1ccccc1)c1cccc(C(F)(F)F)c1 (configuration not stated)	710 nM
Cc1[nH]cnc1CSCCNC(=NCCCCCCCCN=C(NC#N)NCCSCc1nc[nH]c1C)NC#N	1270 nM
NS(=O)(=O)c1cccc(-c2ccc3c(=O)[nH]cnc3c2)c1	950 nM
NS(=O)(=O)c1ccc(CNC(=O)c2cnc3c(O)cccc3c2Nc2cccc(NC(=O)c3ccc(Cl)c(Cl)c3)c2)cc1	1720 nM
CCCCOC(=O)c1ccc(NC(=O)Nc2ccc(Cn3ncc(N4CCCNCC4)c(Cl)c3=O)cc2)cc1	740 nM
COCC(C)n1c(SCC(=O)Nc2cc(C(F)(F)F)ccc2Cl)nc2ccccc2c1=O (configuration not stated)	130 nM
O=C(Cn1c(SCc2cccc(F)c2F)cc(=O)c2ccccc21)N(CCN1CCCCC1)Cc1ccc(-c2ccc(C(F)(F)F)cc2)cc1	660 nM

Source: PubChem BioAssay AID2305 (GlaxoSmithKline (GSK), 2010)
